Results on 29 molecules are retold here after patent publication US20230135152A1 (ACURASTEM INCORPORATED, priority 2020, published 2023).

Broadly, the EC50 is the midpoint of the concentration-response curve. Read a high EC50 as lower potency in that assay. One may read the IC50 as the concentration needed to halve the response being measured. The low end stands for inhibition by little substance, the high end for a need for much substance.

Test [1] has as its target T1, PIKFYVE (Homo sapiens, UniProt Q9Y2I7). Briefly: Cell-based Pikfyve inhibition activity assay (EEA1 staining, mean vesicle size in BJ fibroblast cells). The note with it: Table 4, 4 hours treatment, 3 μM Apilimod = 100% inhibition. An outline of the steps: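 BJ fibroblasts treated 4 h at 37° C with eleven 3-fold doses (0.03-3000 nM), then fixed and stained for EEA1. Confocal images (20×, 16 tiles/well) analysed for mean vesicle size. Normalised to 0.5% DMSO (0%) and 3 μM apilimod (100%); dose-response fitted with variable slope.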

Test [2] addresses T1, PIKFYVE. Briefly: PIKFYVE assay (luciferase ADP-Glo kinase assay, Promega). In kind it is biochemical. As to conditions: Table 3. An outline of the steps: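 ADP generated in the kinase reaction was detected by ADP-Glo luminescence (luciferase).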
(In general: ADP-Glo turns the ADP formed in a reaction into a luminescent signal.)

T1 sequence (Q9Y2I7 whole entry): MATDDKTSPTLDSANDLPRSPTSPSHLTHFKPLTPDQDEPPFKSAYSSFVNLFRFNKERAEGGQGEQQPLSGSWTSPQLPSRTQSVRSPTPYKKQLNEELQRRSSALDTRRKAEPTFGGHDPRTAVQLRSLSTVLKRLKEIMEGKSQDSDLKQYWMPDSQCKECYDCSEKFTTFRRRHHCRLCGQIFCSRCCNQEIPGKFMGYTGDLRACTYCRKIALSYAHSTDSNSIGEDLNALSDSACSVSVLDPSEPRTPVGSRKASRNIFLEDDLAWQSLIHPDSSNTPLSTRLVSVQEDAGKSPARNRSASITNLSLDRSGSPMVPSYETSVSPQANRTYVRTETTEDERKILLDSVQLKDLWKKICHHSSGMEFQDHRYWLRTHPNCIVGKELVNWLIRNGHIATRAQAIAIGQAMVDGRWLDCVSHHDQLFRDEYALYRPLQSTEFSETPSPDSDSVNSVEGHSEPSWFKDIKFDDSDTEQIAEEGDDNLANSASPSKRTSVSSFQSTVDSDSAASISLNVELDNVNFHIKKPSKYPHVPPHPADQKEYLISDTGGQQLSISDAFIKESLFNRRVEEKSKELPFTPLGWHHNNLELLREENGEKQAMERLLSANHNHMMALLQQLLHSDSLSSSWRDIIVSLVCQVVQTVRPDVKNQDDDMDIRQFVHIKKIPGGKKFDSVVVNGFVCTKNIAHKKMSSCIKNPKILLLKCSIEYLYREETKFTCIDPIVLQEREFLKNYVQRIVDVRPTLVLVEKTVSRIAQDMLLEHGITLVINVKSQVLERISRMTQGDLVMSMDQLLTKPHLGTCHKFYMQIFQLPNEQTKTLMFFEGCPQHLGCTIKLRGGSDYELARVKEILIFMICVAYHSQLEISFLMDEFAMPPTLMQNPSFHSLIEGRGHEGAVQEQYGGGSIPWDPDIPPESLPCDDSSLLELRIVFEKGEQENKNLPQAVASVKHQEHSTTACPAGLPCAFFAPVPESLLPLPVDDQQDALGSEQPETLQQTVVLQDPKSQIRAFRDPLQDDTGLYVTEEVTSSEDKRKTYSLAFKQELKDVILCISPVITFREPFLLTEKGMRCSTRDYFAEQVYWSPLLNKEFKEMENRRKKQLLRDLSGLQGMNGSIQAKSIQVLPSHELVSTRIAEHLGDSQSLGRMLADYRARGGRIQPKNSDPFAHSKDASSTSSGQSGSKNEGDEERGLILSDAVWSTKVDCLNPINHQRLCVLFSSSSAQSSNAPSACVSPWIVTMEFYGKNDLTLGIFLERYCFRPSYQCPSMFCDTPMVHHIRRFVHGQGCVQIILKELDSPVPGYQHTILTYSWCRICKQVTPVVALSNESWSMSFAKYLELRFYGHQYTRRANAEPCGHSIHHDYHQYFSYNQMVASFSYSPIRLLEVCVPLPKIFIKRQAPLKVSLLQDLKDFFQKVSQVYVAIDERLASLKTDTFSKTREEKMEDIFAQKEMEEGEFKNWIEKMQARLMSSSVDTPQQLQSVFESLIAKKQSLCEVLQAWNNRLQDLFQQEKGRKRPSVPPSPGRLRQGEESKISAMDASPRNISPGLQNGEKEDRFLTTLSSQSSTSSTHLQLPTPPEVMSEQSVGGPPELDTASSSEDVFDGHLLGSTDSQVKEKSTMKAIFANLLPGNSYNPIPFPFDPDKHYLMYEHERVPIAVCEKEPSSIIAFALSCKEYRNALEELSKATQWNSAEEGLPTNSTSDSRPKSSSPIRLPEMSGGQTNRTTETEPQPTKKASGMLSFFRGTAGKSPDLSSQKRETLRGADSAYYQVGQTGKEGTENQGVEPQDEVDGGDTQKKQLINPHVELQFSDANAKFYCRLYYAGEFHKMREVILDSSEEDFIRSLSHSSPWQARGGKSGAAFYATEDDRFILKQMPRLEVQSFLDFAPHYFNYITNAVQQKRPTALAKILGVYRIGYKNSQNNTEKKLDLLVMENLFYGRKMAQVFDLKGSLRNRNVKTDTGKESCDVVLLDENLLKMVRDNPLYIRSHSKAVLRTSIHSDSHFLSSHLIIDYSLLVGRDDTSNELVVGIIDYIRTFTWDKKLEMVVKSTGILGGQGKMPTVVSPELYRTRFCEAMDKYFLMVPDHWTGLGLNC

For `Cn1cc(CCOc2nc(N3CCOCC3)cc(-n3ccc(-c4ccncc4)n3)n2)cn1` [Compound 191, 4-(2-(2-(1-methyl-1H-pyrazol-4-yl)ethoxy)-6-(3-(pyridin-4-yl)-1H-pyrazol-1-yl)pyrimidin-4-yl)morpholine], the EC50 on PIKFYVE [1] was greater than 5 µM. The molecule further returned a half-maximal inhibitory concentration (IC50) on PIKFYVE [2] of 10 to 100 nM.

On to `CN(C)Cc1cccc(-c2ccn(-c3cc(N4CCOCC4)nc(OCCc4cnn(C)c4)n3)n2)c1` [Compound 193, N,N-dimethyl-1-(3-(1-(2-(2-(1-methyl-1H-pyrazol-4-yl)ethoxy)-6-morpholinopyrimidin-4-yl)-1H-pyrazol-3-yl)phenyl)methanamine], for which the EC50 at PIKFYVE [1] lay in the range of 0.1 to 0.5 µM. The IC50 at PIKFYVE [2] is less than 3 nM.

The molecule `Cn1cc(CCOc2nc(N3CCOCC3)cc(-n3ccc(-c4ccccn4)n3)n2)cn1` [Compound 194, 4-(2-(2-(1-methyl-1H-pyrazol-4-yl)ethoxy)-6-(3-(pyridin-2-yl)-1H-pyrazol-1-yl)pyrimidin-4-yl)morpholine] returned an EC50 on PIKFYVE [1] of 0.1 to 0.5 µM. Also, the IC50 against PIKFYVE [2] was in the range of 3 to 10 nM.

As for `Cn1cc(CCOc2nc(N3CCOCC3)cc(-n3ccc(-c4cccc(F)c4)n3)n2)cn1` [Compound 195, 4-(6-(3-(3-fluorophenyl)-1H-pyrazol-1-yl)-2-(2-(1-methyl-1H-pyrazol-4-yl)ethoxy)pyrimidin-4-yl)morpholine], the EC50 at PIKFYVE [1] is 0.02 to 0.1 µM. This molecule also gave an IC50 at PIKFYVE [2] of less than 3 nM.

On to `Cc1ccc(C)c(-c2ccn(-c3cc(N4CCOCC4)nc(OCCc4cnn(C)c4)n3)n2)c1` [Compound 197, 4-(6-(3-(2,5-dimethylphenyl)-1H-pyrazol-1-yl)-2-(2-(1-methyl-1H-pyrazol-4-yl)ethoxy)pyrimidin-4-yl)morpholine], for which the EC50 on PIKFYVE [1] was 0.1 to 0.5 µM. Moreover, at PIKFYVE [2], the IC50 was 3 to 10 nM.

For the molecule `COCc1cccc(-c2ccn(-c3cc(N4CCOCC4)nc(OCCc4cnn(C)c4)n3)n2)c1` [Compound 200, 4-(6-(3-(3-(methoxymethyl)phenyl)-1H-pyrazol-1-yl)-2-(2-(1-methyl-1H-pyrazol-4-yl)ethoxy)pyrimidin-4-yl)morpholine], at PIKFYVE [1], the half-maximal effective concentration (EC50) is less than 0.02 µM. Moreover, the IC50 at PIKFYVE [2] was less than 3 nM.

Turning to `Cn1nccc1CC(O)c1nc(N2CCOCC2)cc(-n2ccc(-c3ccccc3)n2)n1` (stereo not shown) [Compound 201, 2-(1-methyl-1H-pyrazol-5-yl)-1-(4-morpholino-6-(3-phenyl-1H-pyrazol-1-yl)pyrimidin-2-yl)ethan-1-ol], on PIKFYVE [1], the EC50 fell in the range of 0.5 to 5 µM. At PIKFYVE [2], the IC50 was 10 to 100 nM.

Turning to `Cc1cc(-c2ccccc2)nn1-c1cc(N2CCOCC2)nc(N)n1` [Compound 202, 4-(5-methyl-3-phenyl-1H-pyrazol-1-yl)-6-morpholinopyrimidin-2-amine], the EC50 at PIKFYVE [1] lay in the range of 0.5 to 5 µM. The molecule also showed an IC50 against PIKFYVE [2] of 100 to 5000 nM.

`Cn1cc(CCOc2nc(N3CCOCC3)cc(-n3ccc(-c4c[nH]c5ccccc45)n3)n2)cn1` [Compound 203, 4-(6-(3-(1H-indol-3-yl)-1H-pyrazol-1-yl)-2-(2-(1-methyl-1H-pyrazol-4-yl)ethoxy)pyrimidin-4-yl)morpholine] displayed an EC50 at PIKFYVE [1] of 0.1 to 0.5 µM. Moreover, the IC50 at PIKFYVE [2] lay within 10 to 100 nM.

Regarding `CO[C@@H](CO)c1nc(N2CCOCC2)cc(-n2nc(-c3ccccc3)cc2C)n1` [Compound 204, (R)-2-methoxy-2-(4-(5-methyl-3-phenyl-1H-pyrazol-1-yl)-6-morpholinopyrimidin-2-yl)ethan-1-ol], the EC50 at PIKFYVE [1] lay in the range of 0.5 to 5 µM. Moreover, on PIKFYVE [2], the half-maximal inhibitory concentration (IC50) was 10 to 100 nM.

In turn, `Cc1cccc(-c2cc(CN(C)C)n(-c3cc(N4CCOCC4)nc(OCC4(C)COC4)n3)n2)c1` [Compound 206, N,N-dimethyl-1-(1-(2-((3-methyloxetan-3-yl)methoxy)-6-morpholinopyrimidin-4-yl)-3-(m-tolyl)-1H-pyrazol-5-yl)methanamine] came in with a half-maximal effective concentration (EC50) on PIKFYVE [1] of 0.5 to 5 µM. Besides, the IC50 on PIKFYVE [2] lay in the range of 3 to 10 nM.

As to `Cc1cccc(-c2ccn(-c3cc(N4CCOCC4)nc(NCCO)n3)n2)c1` [Compound 208, 2-((4-morpholino-6-(3-(m-tolyl)-1H-pyrazol-1-yl)pyrimidin-2-yl)amino)ethan-1-ol], the EC50 on PIKFYVE [1] was 0.02 to 0.1 µM. Further, the IC50 against PIKFYVE [2] was in the range of 3 to 10 nM.

Regarding `Cc1cccc(-c2ccn(-c3cc(N4CCOCC4)nc(OCCN)n3)n2)c1` [Compound 209, 2-((4-morpholino-6-(3-(m-tolyl)-1H-pyrazol-1-yl)pyrimidin-2-yl)oxy)ethan-1-amine], at PIKFYVE [1], the EC50 lay in the range of 0.1 to 0.5 µM. Also, the IC50 on PIKFYVE [2] was in the range of 10 to 100 nM.

The molecule `Cn1cc(CCOc2nc(N3CCOCC3)cc(-n3nc(O)cc3-c3ccccc3)n2)cn1` [Compound 211, 1-(2-(2-(1-methyl-1H-pyrazol-4-yl)ethoxy)-6-morpholinopyrimidin-4-yl)-5-phenyl-1H-pyrazol-3-ol] showed an EC50 on PIKFYVE [1] of 0.1 to 0.5 µM. Moreover, the IC50 against PIKFYVE [2] was less than 3 nM.

As to `Cn1cc(CCOc2nc(Oc3cc(-c4ccccc4)nn3C)cc(N3CCOCC3)n2)cn1` [Compound 212, 4-(2-(2-(1-methyl-1H-pyrazol-4-yl)ethoxy)-6-((1-methyl-3-phenyl-1H-pyrazol-5-yl)oxy)pyrimidin-4-yl)morpholine], at PIKFYVE [1], the EC50 lay in the range of 0.5 to 5 µM. Moreover, the IC50 on PIKFYVE [2] lay within 3 to 10 nM.

Take `Cc1cccc(-c2ccn(-c3cc(N4CCOCC4)nc(OCCc4cn[nH]c4)n3)n2)c1` [Compound 214, 4-(2-(2-(1H-pyrazol-4-yl)ethoxy)-6-(3-(m-tolyl)-1H-pyrazol-1-yl)pyrimidin-4-yl)morpholine]: the EC50 on PIKFYVE [1] is less than 0.02 µM. The molecule further yielded an IC50 at PIKFYVE [2] of less than 3 nM.

At PIKFYVE [1], `Cn1cc(CCOc2nc(Oc3cc(-c4ccccc4)[nH]n3)cc(N3CCOCC3)n2)cn1` [Compound 215, 4-(2-(2-(1-methyl-1H-pyrazol-4-yl)ethoxy)-6-((5-phenyl-1H-pyrazol-3-yl)oxy)pyrimidin-4-yl)morpholine] came in with an EC50 of 0.5 to 5 µM. Also, the concentration for half-maximal inhibition (IC50) against PIKFYVE [2] was 10 to 100 nM.

Regarding `Cn1cc(CCOc2nc(N3CCOCC3)cc(-n3nc(-c4ccccc4)cc3C3CC3)n2)cn1` [Compound 216, 4-(6-(5-cyclopropyl-3-phenyl-1H-pyrazol-1-yl)-2-(2-(1-methyl-1H-pyrazol-4-yl)ethoxy)pyrimidin-4-yl)morpholine], the EC50 on PIKFYVE [1] fell in the range of 0.02 to 0.1 µM. Also, the IC50 at PIKFYVE [2] is less than 3 nM.

`COCc1cc(-c2ccccc2)nn1-c1cc(N2CCOCC2)nc(OCCc2cnn(C)c2)n1` [Compound 217, 4-(6-(5-(methoxymethyl)-3-phenyl-1H-pyrazol-1-yl)-2-(2-(1-methyl-1H-pyrazol-4-yl)ethoxy)pyrimidin-4-yl)morpholine] showed a 50% effective concentration (EC50) on PIKFYVE [1] of 0.02 to 0.1 µM. On PIKFYVE [2], the concentration for half-maximal inhibition (IC50) was less than 3 nM.

In turn, `CCc1cc(-c2ccccc2)nn1-c1cc(N2CCOCC2)nc(OCCc2cnn(C)c2)n1` [Compound 218, 4-(6-(5-ethyl-3-phenyl-1H-pyrazol-1-yl)-2-(2-(1-methyl-1H-pyrazol-4-yl)ethoxy)pyrimidin-4-yl)morpholine] had an EC50 at PIKFYVE [1] of 0.02 to 0.1 µM. In addition, at PIKFYVE [2], the concentration for half-maximal inhibition (IC50) was less than 3 nM.

Turning to `Cc1cccc(-c2cc(C)n(-c3cc(N4CCOCC4)nc(OCCc4cnn(C)c4)n3)n2)c1` [Compound 219, 4-(2-(2-(1-methyl-1H-pyrazol-4-yl)ethoxy)-6-(5-methyl-3-(m-tolyl)-1H-pyrazol-1-yl)pyrimidin-4-yl)morpholine], on PIKFYVE [1], the half-maximal effective concentration (EC50) was 0.02 to 0.1 µM. For the same molecule, the IC50 against PIKFYVE [2] is less than 3 nM.

On to `CN(C)CCc1cc(-c2ccccc2)nn1-c1cc(N2CCOCC2)nc(OCCc2cnn(C)c2)n1` [Compound 220, N,N-dimethyl-2-(1-(2-(2-(1-methyl-1H-pyrazol-4-yl)ethoxy)-6-morpholinopyrimidin-4-yl)-3-phenyl-1H-pyrazol-5-yl)ethan-1-amine], for which, on PIKFYVE [1], the EC50 was less than 0.02 µM. In addition, the IC50 against PIKFYVE [2] was less than 3 nM.

`CNCCc1cc(-c2ccccc2)nn1-c1cc(N2CCOCC2)nc(OCCc2cnn(C)c2)n1` [Compound 221, N-methyl-2-(1-(2-(2-(1-methyl-1H-pyrazol-4-yl)ethoxy)-6-morpholinopyrimidin-4-yl)-3-phenyl-1H-pyrazol-5-yl)ethan-1-amine] displayed an EC50 on PIKFYVE [1] of 0.02 to 0.1 µM. Moreover, the half-maximal inhibitory concentration (IC50) against PIKFYVE [2] is less than 3 nM.

As to `Cc1cccc(-c2ccn(-c3cc(N4CCOCC4)nc(CCc4cnn(C)c4)n3)n2)c1` [Compound 223, 4-(2-(2-(1-methyl-1H-pyrazol-4-yl)ethyl)-6-(3-(m-tolyl)-1H-pyrazol-1-yl)pyrimidin-4-yl)morpholine], the EC50 at PIKFYVE [1] was in the range of 0.1 to 0.5 µM. For the same molecule, the IC50 at PIKFYVE [2] is less than 3 nM.

Turning to `CO[C@H](CO)c1nc(N2CCOCC2)cc(-n2nc(-c3cccc(C)c3)cc2C)n1` [Compound 225, (S)-2-methoxy-2-(4-(5-methyl-3-(m-tolyl)-1H-pyrazol-1-yl)-6-morpholinopyrimidin-2-yl)ethan-1-ol], the 50% effective concentration (EC50) on PIKFYVE [1] was 0.1 to 0.5 µM. The molecule further had an IC50 on PIKFYVE [2] of 3 to 10 nM.

For `COC(C)(CO)c1nc(N2CCOCC2)cc(-n2ccc(-c3cccc(C)c3)n2)n1` (stereo not shown) [Compound 226, 2-methoxy-2-(4-morpholino-6-(3-(m-tolyl)-1H-pyrazol-1-yl)pyrimidin-2-yl)propan-1-ol], the EC50 at PIKFYVE [1] lay within 0.5 to 5 µM. Besides, the IC50 at PIKFYVE [2] lay in the range of 3 to 10 nM.

With `COC(C)(CO)c1nc(N2CCOCC2)cc(-n2ccc(-c3cccc(C)c3)n2)n1` (stereo not shown) [Compound 227, 2-methoxy-2-(4-morpholino-6-(3-(m-tolyl)-1H-pyrazol-1-yl)pyrimidin-2-yl)propan-1-ol], the EC50 on PIKFYVE [1] was in the range of 0.1 to 0.5 µM. For the same molecule, the IC50 against PIKFYVE [2] was less than 3 nM.

Molecule `COC(CO)(c1ccccc1)c1nc(N2CCOCC2)cc(-n2ccc(-c3cccc(C)c3)n2)n1` (stereo not shown) [Compound 228, 2-methoxy-2-(4-morpholino-6-(3-(m-tolyl)-1H-pyrazol-1-yl)pyrimidin-2-yl)-2-phenylethan-1-ol] returned an EC50 on PIKFYVE [1] of 0.1 to 0.5 µM. The same molecule returned a half-maximal inhibitory concentration (IC50) against PIKFYVE [2] of less than 3 nM.

`COC(CO)(c1ccccc1)c1nc(N2CCOCC2)cc(-n2ccc(-c3cccc(C)c3)n2)n1` (stereo not shown) [Compound 229, 2-methoxy-2-(4-morpholino-6-(3-(m-tolyl)-1H-pyrazol-1-yl)pyrimidin-2-yl)-2-phenylethan-1-ol] displayed an EC50 on PIKFYVE [1] of 0.1 to 0.5 µM. In addition, the IC50 against PIKFYVE [2] lay in the range of 3 to 10 nM.
